Assay results published in patent publication US10842151B2, “Small molecule compound for enhancing plant stress resistance” (SHANGHAI INSTITUTES FOR BIOLOGICAL SCIENCES, CHINESE …, priority 2015, dated 2020).

Assays:
soybean = test: Soil drought experiment, soybean; type: in vivo
Experimental: Only one plant was contained in each pot. All soybean plants were long-day cultured at 26° C. Watering was stopped after the plant had three leaves in each of three groups of leaves and the plants with consistent growth were selected for drought treatment. As for corn, watering was stopped during the small trumpet period for drought treatment. […] After a week, the watering was resumed. Soybeans and cotton used in leaf transpiration experiments for compound 0720B were also used for soil drought experiments. Each pot contained only one plant and was filled with the same weight of soil to reduce experimental errors. All of the soybean plants were grown at 26° C. for long-day culture. 16 days after seeding, watering was stopped and the plants with consistent growth were selected for drought treatment. […] Cotton drought experiments were similar to that of the soybean. 23 days after seeding, the watering was stopped, and the plants with consistent growth were selected for drought treatment. […] After 10 days of drought, the photos were taken.

[1] = test system: PYR1/PYL1/PYL2/PYL7 + HAB1; test: AlphaScreen experiment, PYL receptor binding to HAB1; set-up: species or system Arabidopsis; conditions: AMX: PYR1/PYL1/PYL2/PYL7; 0720B: PYL2 receptor and PYL1 receptor
Experimental: (§1) After incubating for 1.5 hours at room temperature in the dark, it was placed into an Envision Plate Reader (available from Perkin Elmer) under the programmed AlphaScreen procedure for readings.

[2] = test system: PYR/PYL receptors (PYR1, PYL1, PYL2 and PYL7)-HAB1 complex; test: Broad spectrum experiment on PYR/PYL receptors (HAB1 phosphatase activity); type: biochemical, Arabidopsis; conditions: 1 μM; for binding ability with PYR1/PYL1/PYL2/PYL7 compared with ABA: FIG. 1, FIG. 13
Experimental: (§2) HAB1 Phosphatase Activity Assay […] The reaction system was incubated at room temperature for 30 minutes, followed by a further reaction for 30 minutes after adding an 11-amono acid phosphorylated polypeptide as a substrate. The phosphorylated polypeptide consisting of amino acid 170-180 of SnRK2.6 protein kinase (sequence […]) was purchased from […] company, wherein phosphorylated […] was a known HAB1 dephosphorylation target site. After 30 minutes, chromogenic reagent (purchased from BioVision) was added and the absorbance at 650 nm was read on a microplate reader (Molecular Devices).

PYL2 + HAB1 [3] = target: T1, PYL2 + HAB1 (Arabidopsis thaliana, UniProt O80992); test: AlphaScreen experiment, PYL2 + HAB1; type: binding; conditions: number in brackets; read-out: Half maximum effect concentration EC50 (PYL2 + HAB1)
T1 construct: made in house; host or cells: E. coli BL21 (DE3)
T1 sequence (O80992 14-188 limits assumed): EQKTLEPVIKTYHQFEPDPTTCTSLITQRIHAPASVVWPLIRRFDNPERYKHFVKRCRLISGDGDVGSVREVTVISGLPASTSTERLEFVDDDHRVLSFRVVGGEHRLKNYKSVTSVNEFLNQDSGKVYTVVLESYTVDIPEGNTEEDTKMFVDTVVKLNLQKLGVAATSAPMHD
T1 sequence (Q9CAJ0 172-511 partner limits assumed): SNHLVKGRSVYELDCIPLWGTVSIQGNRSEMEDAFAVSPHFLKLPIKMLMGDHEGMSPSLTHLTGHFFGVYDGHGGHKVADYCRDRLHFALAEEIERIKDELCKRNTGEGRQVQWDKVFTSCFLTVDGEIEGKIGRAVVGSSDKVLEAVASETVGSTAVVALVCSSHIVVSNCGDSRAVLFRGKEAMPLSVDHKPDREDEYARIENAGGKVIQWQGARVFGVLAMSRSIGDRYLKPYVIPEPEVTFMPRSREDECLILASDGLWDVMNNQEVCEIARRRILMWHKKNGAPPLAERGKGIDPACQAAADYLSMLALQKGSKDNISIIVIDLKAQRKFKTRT
Experimental: as §1

cotton [4] = test: Soil drought experiment, cotton; type: in vivo; conditions: 50 μM every 4 days; after 10 days of drought
Experimental: Soybeans and cotton used in leaf transpiration experiments for compound 0720B were also used for soil drought experiments. Each pot contained only one plant and was filled with the same weight of soil to reduce experimental errors. All of the soybean plants were grown at 26° C. for long-day culture. 16 days after seeding, watering was stopped and the plants with consistent growth were selected for drought treatment. […] Cotton drought experiments were similar to that of the soybean. 23 days after seeding, the watering was stopped, and the plants with consistent growth were selected for drought treatment. […] After 10 days of drought, the photos were taken.

cotton [5] = test: Cotton leaf transpiration experiment (thermal imaging); type: in vivo; conditions: 50 μM; after two days; vs DMSO
Experimental: (§3) Leaf transpiration experiments of soybean and cotton for compound 0720B were carried out at 26° C. with long-day lighting. 16 days and 23 days after sowing, a solution containing 0.1% tween-20 and corresponding concentration of (+)-ABA, or 0720B compound or 0.1% Tween-20 and 0.05% DMSO (control) was sprayed in an amount of 4 ml/pot. Images were taken daily using the FLIR A655sc thermal imaging camera at the same time before and after spraying.

PYL2 + HAB1 [6] = target: T1, PYL2 + HAB1; test: HAB1 phosphatase activity assay with PYL2, SnRK2.6 phosphorylated polypeptide substrate; type: biochemical; conditions: PYL2 receptor; same concentration as ABA
Experimental: as §2

soybean Williams 82 = test: Soybean leaf transpiration experiment (thermal imaging); type: in vivo
Experimental: After three weeks of continuous watering, 0.05% tween-20 and corresponding concentrations of DMSO (control)/compound (+)-ABA/0918/1127 were sprayed onto the plants in a single administration with an amount of 1.2 ml/pot. Images were taken daily using the FLIR A655sc thermal imaging camera at the same time before and after spraying. The Williams 82 ecotype was used in soybean leaf transpiration experiments for compounds 0604c, 0918 and 1127 and was long-day cultured at 26° C. After the plants grew and had 3 leaves in each of 3 groups, 0.05% tween-20 and 50 μM DMSO (control)/(+)-ABA/0604c/0918/1127 compounds were sprayed in a single administration with an amount of 4 ml/pot. Images were taken daily using the FLIR A655sc thermal imaging camera at the same time before and after spraying.
as §3

PYL7 + HAB1 = target: T2, PYL7 + HAB1 (Arabidopsis thaliana, UniProt Q1ECF1); test: AlphaScreen experiment, PYL7 + HAB1; type: binding; conditions: number in brackets; read-out: Half maximum effect concentration EC50 (PYL7 + HAB1)
T2 construct: made in house; host or cells: E. coli BL21 (DE3)
T2 sequence (Q1ECF1 1-211): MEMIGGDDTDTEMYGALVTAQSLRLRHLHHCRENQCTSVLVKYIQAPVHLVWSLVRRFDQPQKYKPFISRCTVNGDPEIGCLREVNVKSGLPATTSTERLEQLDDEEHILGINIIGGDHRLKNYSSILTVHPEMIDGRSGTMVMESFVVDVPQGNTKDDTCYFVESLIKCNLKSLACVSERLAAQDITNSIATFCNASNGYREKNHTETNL
T2 sequence (Q9CAJ0 172-511 partner limits assumed): T1 sequence (Q9CAJ0 172-511 partner limits assumed)
Experimental: as §1

maize (corn) = test: Soil drought experiment, maize; type: in vivo; conditions: 50 μM; a week of drought
Experimental: Only one plant was contained in each pot. All soybean plants were long-day cultured at 26° C. Watering was stopped after the plant had three leaves in each of three groups of leaves and the plants with consistent growth were selected for drought treatment. As for corn, watering was stopped during the small trumpet period for drought treatment. […] After a week, the watering was resumed.

[7] = test system: pyr1;pyl1;pyl4 triple mutant seeds; test: Seed germination, PYR/PYL triple mutant; type: in vivo, Arabidopsis thaliana; conditions: 1 μM; six days after seeding
Text: (§4) Two lines of plant were sown simultaneously on a single medium of 6 cm diameter, with 15 seeds sown for each line and 4 replicates for each compound. […]

[8] = test system: Arabidopsis ABA synthesis defective mutant aba2-1; type: in vivo, Arabidopsis thaliana; conditions: 5 μM sprayed; after 4 days; vs DMSO
[9] = test system: Arabidopsis Col-0 ecotype; test: Soil drought experiment, Arabidopsis; type: in vivo, Arabidopsis thaliana
Experimental: Seeds of Arabidopsis Col-0 ecotype were sterilized with NaClO and then sown on ½ MS solid medium at 4° C. for 3 days of vernalization. After 6 days of growing, the well-grown seedlings having uniform size were selected and transferred into 8×7×6 cm^3 pots. Each pot was filled with the same weight of soil and the same number of plants (six plants) was planted to reduce experimental error. All the pots were subjected to a short-day culture at 22° C. After two weeks, watering was stopped for drought treatment. […] The position of the flowerpot was changed every day during the process of drought to reduce the error caused by environmental factors. During the whole drought period, the solution was sprayed twice in total and photos were recorded regularly. The watering was resumed in about three weeks.

[10] = test system: Arabidopsis thaliana Col-0 ecotype seeds; test: Seed germination, Col-0; type: in vivo; conditions: 1 μM
Text: as §4

PYR1 + HAB1 = target: T3, PYR1 + HAB1 (Arabidopsis thaliana, UniProt O49686); test: AlphaScreen experiment, PYR1 + HAB1; type: binding; conditions: column 2; number in brackets; read-out: Half maximum effect concentration EC50 (PYR1 + HAB1)
T3 sequence (O49686 1-191): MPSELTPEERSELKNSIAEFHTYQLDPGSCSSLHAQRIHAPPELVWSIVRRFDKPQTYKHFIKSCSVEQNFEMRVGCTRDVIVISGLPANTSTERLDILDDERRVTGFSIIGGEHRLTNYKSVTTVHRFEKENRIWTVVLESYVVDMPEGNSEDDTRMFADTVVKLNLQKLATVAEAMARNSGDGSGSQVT
T3 sequence (Q9CAJ0 172-511 partner): T1 sequence (Q9CAJ0 172-511 partner limits assumed)
Experimental: as §1

[11] = test system: ABA-induced environmental stress-related gene expression; test: Gene expression analysis (fluorescence quantitative PCR); type: in vivo, Arabidopsis thaliana (Col-0); conditions: one day after treatment; ABA 10 μM
Experimental: The whole plant or leaves were taken, and RNA extraction was carried out by using conventional methods. After reverse transcription, the fluorescence quantitative PCR was carried out. Triple biological samples were taken for each treatment which was performed twice. The ACT7 gene was used as a reference gene.

[12] = test system: soybean GmPYL3 and GmPYL6 + Arabidopsis AtHAB1; test: AlphaScreen experiment with soybean GmPYL receptors; type: binding; conditions: FIG. 9
Experimental: as §1

CCCN1C(=O)CC(C)c2cc(NS(=O)(=O)Cc3c(F)c(F)c(C)c(F)c3F)ccc21 (stereo not drawn) [Compound 0720B]
growth after rewatering (soybean; 10 μM, 20 μM or 50 μM every 3 days, rewatered 11 days after drought): significantly better than that of the plants sprayed with DMSO (control) and the plants sprayed with 50 μM ABA
PYL receptor binding affinity compared with ABA [1]: significantly superior to ABA
binding ability with PYR1/PYL1/PYL2/PYL7 compared with ABA [2]: significantly higher than that of ABA
EC50 (PYL2 + HAB1 [3]): 0.03 µM
growth (cotton [4]): significantly better than that of the plants sprayed with DMSO (control) and the plants sprayed with 50 μM ABA
leaf temperature (cotton [5]): significantly higher than that in plants sprayed with DMSO
inhibition of the dephosphorylation effect of HAB1 on SnRK2.6 phosphorylated polypeptide compared with ABA (PYL2 + HAB1 [6]): significantly better than that of ABA at the same concentration
leaf temperature (soybean Williams 82; one day after spraying, 10 μM, 20 μM or 50 μM): significantly higher than that of plants in DMSO-sprayed control and that of plants sprayed with 50 μM ABA
leaf temperature (soybean Williams 82; two days after spraying, 0720B 20 μM or 50 μM, ABA 50 μM): significantly higher than that of the DMSO-sprayed control

CCCN1C(=O)CCc2cc(NS(=O)(=O)Cc3ccc(C)c(F)c3F)ccc21 [Compound 0918]
EC50 (PYL7 + HAB1): 0.02 µM
survival after rewatering (maize (corn)): Most of the corn sprayed with compound 0918 survived after rewatering
germination of pyr1;pyl1;pyl4 triple mutant seeds [7]: could not inhibit germination of PYR/PYL triple mutant pyr1;pyl1;pyl4 seeds
leaf temperature [8]: still higher than that in the control group
plant survival ([9]; 5 μM sprayed, 18 days after drought): still survived
drought resistance compared with compound with fewer halogen atoms (0604c) ([9]; same concentration, after 2 weeks of drought, FIG. 8c): stronger drought resistance
inhibition effect on germination of Col-0 ecotype seeds compared with control compound [10]: significantly better inhibition effect
germination of Col-0 ecotype seeds ([10]; six days after seeding): could still inhibit germination of Col-0 ecotype seeds
growth (soybean; 50 μM, a week of drought, one month after rewatering): grew significantly better than the plants sprayed with DMSO (control) and sprayed with 50 μM ABA
EC50 (PYR1 + HAB1): 0.02 µM
expression level of relevant genes compared with ABA [11]: significantly higher than that in the plants treated with 10 μM ABA
binding to PYR/PYL receptors [2]: could bind with PYR1/PYL1/PYL2/PYL3/PYL4/PYL5/PYL7/PYL10
binding ability with PYR1/PYL1/PYL2/PYL7 compared with ABA [2]: significantly higher than those of ABA
EC50 (PYL2 + HAB1 [3]): 0.03 µM
affinities for soybean GmPYL proteins compared with ABA [12]: significantly higher affinities
